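These data come from cells grown in 96-well plates and exposed to compound for 48 hours at five concentrations. At the GI50, growth is halved.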 Active and inactive are the calls of the source. Rule as the data show it: active = GI50 up to about 1.1 µM and inactive = higher.
What was measured:
Test in all cases: growth of human tumour cells (NCI), 48 h
[1] = system: XF498
[2] = system: KM-20L2
[3] = system: HOP-18
[4] = system: DMS-114
[5] = system: DMS-273
[6] = system: RXF 631
[7] = system: DLD-1
[8] = system: SNB-78
[9] = system: LXFL 529

Measured: GI50

COc1cc(/C=C\c2ccccn2)cc(OC)c1OC
inactive: [1] 16.2 µM | [2] 71.4 µM | [3] > 100 µM | [4] 45.6 µM | [5] 75 µM | [6] > 100 µM | [7] > 100 µM | [8] > 100 µM | [9] 70.5 µM

Reference: ChEMBL document CHEMBL1201862, “PubChem BioAssay data set” (2004)
